This is an account of results in article PMC10286459 (Cell & Bioscience, 2023).

One data set relates to MDA-MB-231 cells. The experiment in a line: Half-life of biotin-labeled peptides in living cells (Western blotting). It counts as in vitro ADME, human. Conditions: biotin-labeled peptide 20 µM for 2 h, then fresh medium, cells collected 0-48 h, β-actin loading control. On the procedure:
(§1) SDS-PAGE gel electrophoresis and Coomassie brilliant blue staining were performed to measure peptide stability. […] Cells were collected at different post-treatment time points (0, 1, 2, 4, 8, 16, 24, 36, 48 h). […] D The docking of peptide P22 (106–126) to the FOXM1 C-terminus (PDB ID 6OSW) was created by Rosetta FlexPepDock and PyMOL. Left, the interface of peptide-protein interaction, the peptide was shown in cyan, and the C-terminus of FOXM1 was shown according to its electrostatic potential. Right, hydrogen bonds are formed by residues at the interface of peptide and protein interaction. […] Streptavidin magnetic beads were added to lysates to pull down the biotin-peptides/protein complexes. […] M1-21mut was used as the control.
For orientation: In western blotting, separated proteins are transferred to a membrane and probed.

Data set [1] deals with T1, Flag-GFP-FOXM1(688–748) protein (Homo sapiens, UniProt Q08050).
T1 construct: expressing exogenous Flag-GFP-FOXM1(688-748) protein; expressed in transfected cells; host or cells: 293T (HEK-293T) cell lysates
T1 sequence (Q08050 688-748 isoform Q08050-2): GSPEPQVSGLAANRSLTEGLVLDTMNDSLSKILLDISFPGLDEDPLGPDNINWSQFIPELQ
The experiment in a line: Biotin-peptide Pulldown with Streptavidin Magnetic Beads. It counts as binding. Conditions: biotin-labeled peptide, 293T cell lysates (500 µg) expressing Flag-GFP-FOXM1(688–748); Western Blotting. An excerpt:
Fig. 1 Screening of TAT-106-126 peptide targeting FOXM1 protein. A An in silico peptide library (P1 to P24, 21-mer) was created from the FOXM1 N-terminus sequence (1-138aa) with a 5 amino acid shift window. The peptide candidates binding to FOXM1 C-terminus (PDB ID 6OSW) were selected by Rosetta FlexPepDock simulation and InterfaceAnalyzer calculation according to docking free energy (dG). B P20, P21, and P22 fused with the cell-penetrating TAT sequence (TAT-96-116, TAT-101-121, and TAT-106-126) were produced by solid-phase peptide synthesis. […] Data points indicated the fraction of GFP-M1(688–748)-bound peptides (ΔFNormal/Amplitude) at different concentrations and curves indicated the calculated fits. The error bars represented the standard error of three independent measurements. […] 48 h Later, trypan blue (0.4%) was added to each well for 3 min and the cells were fixed to 4% paraformaldehyde for imaging. […] The mean IC50 value (µM) for each peptide was obtained from three replicates. D The TAT-106-126 peptide was biotin-labeled and added to 293T cell lysates (500 µg) expressing exogenous Flag-GFP-FOXM1(688–748) protein. The lysates were incubated with Streptavidin magnetic beads to pull down biotin-peptide/protein complexes. Biotin and Flag-GFP-FOXM1(688–748) protein in samples were detected by Western Blotting. […] E Biotin-labeled TAT-106-126 or TAT was added to 293T cell lysates (500 µg). The lysates were incubated with Streptavidin magnetic beads to pull down biotin-peptide/protein complexes. Biotin and endogenous FOXM1 protein were detected by Western Blotting.
A Biotin-labeled peptides TAT-96-116, TAT-101-121, and TAT-106-126 were added to 293T cell lysates (500 µg) expressing exogenous Flag-GFP-FOXM1(688-748) protein (or Flag-GFP control lysates). The lysates were incubated with Streptavidin magnetic beads to pull down biotin-peptide/protein complexes. Biotin and Flag-GFP-FOXM1(688-748) protein in samples were detected by Western Blotting. […] Biotin and exogenous FOXM1 protein were detected by Western Blotting.

For another data set, the target named is T2, full-length FOXM1 (Homo sapiens, UniProt Q08050).
T2 sequence (Q08050 703-763 limits assumed): T1 sequence (Q08050 688-748 isoform Q08050-2)
The data set is described as above. Conditions: biotin-labeled peptide, cell lysates (500 µg) with endogenous or exogenous FOXM1; Western Blotting. It counts as binding. The method, then:
as §1

Data set [2] deals with T3, interaction between FOXM1 and PLK1 (Homo sapiens, UniProt Q08050).
T3 construct: expressed in transfected cells; host or cells: MDA-MB-231 stably infected with pLVX-TetOne-Flag-FOXM1b lentivirus (231-Flag-FOXM1-Ind), doxycycline-induced
Nature of the data set: Co-IP in 231-Flag-FOXM1-Ind cells. It counts as cell-based. The settings on record: doxycycline 200 ng/mL 24 h, M1-21 10, 20 µM or TAT-106-126 20, 40, 80 µM for 6 h. An excerpt:
Number of repetitions = 3. […] Number of repetitions = 3. […] Number of repetitions = 3. […] GAPDH was used as a loading control.

No end group written: not given here.

T3 sequence (Q08050 1-748 isoform Q08050-2): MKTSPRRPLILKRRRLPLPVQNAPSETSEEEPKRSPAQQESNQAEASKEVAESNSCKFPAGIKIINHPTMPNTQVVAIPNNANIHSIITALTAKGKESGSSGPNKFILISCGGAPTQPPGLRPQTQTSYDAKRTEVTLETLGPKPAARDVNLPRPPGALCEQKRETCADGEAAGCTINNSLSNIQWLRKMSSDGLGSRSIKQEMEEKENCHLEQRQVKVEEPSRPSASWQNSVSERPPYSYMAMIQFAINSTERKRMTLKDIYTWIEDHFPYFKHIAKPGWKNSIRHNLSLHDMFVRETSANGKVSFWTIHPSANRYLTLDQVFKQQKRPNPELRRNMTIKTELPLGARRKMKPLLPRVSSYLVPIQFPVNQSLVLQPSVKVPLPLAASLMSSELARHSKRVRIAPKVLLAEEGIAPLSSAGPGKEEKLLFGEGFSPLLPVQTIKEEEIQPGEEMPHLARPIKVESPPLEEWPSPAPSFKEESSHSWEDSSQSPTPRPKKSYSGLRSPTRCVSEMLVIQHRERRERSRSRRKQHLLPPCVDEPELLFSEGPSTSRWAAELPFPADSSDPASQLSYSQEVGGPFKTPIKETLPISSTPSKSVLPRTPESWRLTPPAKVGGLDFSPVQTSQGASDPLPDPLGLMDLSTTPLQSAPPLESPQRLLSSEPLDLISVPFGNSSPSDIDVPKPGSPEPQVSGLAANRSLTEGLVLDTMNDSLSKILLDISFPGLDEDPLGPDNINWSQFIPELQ

“GRKKRRQRRRFILISCGGAPTQPPGLRPQTQ [TAT-106-126]”: the “Half-life in living MDA-MB-231 cells” value with MDA-MB-231 cells was 6.2 h. For the same sequence, the “binding to FOXM1 C-terminus in Pulldown” value in data set [1] is recorded as “capable of binding”. In addition, the “binding to full-length FOXM1 in Pulldown” value at full-length FOXM1 is on record as “capable of binding”. Further, in data set [2], the “interaction between FOXM1 and PLK1 (Co-IP)” value is reported as “comparable activity to M1-21”.

As for “GRKKRRQRRRKESGSSGPNKFILISCGGAPT [TAT-96-116]”, the “binding to FOXM1 C-terminus in Pulldown” value in data set [1] was “interacted”. In addition, on full-length FOXM1, the “binding to full-length FOXM1 in Pulldown” value is recorded as “neither of them effectively bound”.

Regarding “GRKKRRQRRRSGPNKFILISCGGAPTQPPGL [TAT-101-121]”, the “binding to FOXM1 C-terminus in Pulldown” value in data set [1] was “interacted”. On full-length FOXM1, the “binding to full-length FOXM1 in Pulldown” value is given as “neither of them effectively bound”.
